Experimental data from US20120245186A1, “COMBINATION CANCER THERAPY WITH HSP90 INHIBITORY COMPOUNDS” (SYNTA PHARMACEUTICALS CORP., priority 2009, published 2012).
Like-named read-outs stand apart in the source and are kept apart here.

What was measured:
[1] = test system: HT29 colon cancer cells; test: Single agent IC50, alamarBlue cell viability (Example 3), HT29; assay type: cell-based, human; details: XLFit
[2] = test system: NCI-H1975 non-small cell lung carcinoma cells; test: Single agent IC50, alamarBlue cell viability (Example 3), NCI-H1975; assay type: cell-based, human; details: XLFit
Method: (§1) Cell viability was measured using the alamarBlue assay. In brief, cells were plated in 96-well plates in triplicate at 2000 cells per well (H1975) or 5000 cells per well (HEL92.1.7) and incubated at 37° C., 5% CO2 atmosphere for 24 hr prior to the addition of drug or vehicle (0.3% DMSO) to the culture medium. After 72 hr, 10 μl/well alamarBlue was added to the wells and incubated for an additional 3 hr at 37° C., 5% CO2 atmosphere. Fluorescence (560EX/590EM […]) was measured with a SpectraMax microplate reader (Molecular Devices) and the resulting data were used to calculate cell viability, normalized to vehicle control. […] After 72 hr exposure to drug, cell viability was measured.

[3] = test system: HCC827 human non-small cell lung cancer (NSCLC) cells; assay type: in vivo; details: day 40, SCID mice
Description: (§2) Animals were housed 4-5/cage in micro-isolators, with a 12 hr/12 hr light/dark cycle, acclimated for at least 1 week prior to use and fed normal laboratory chow ad libitum.

[4] = test system: HEL92.1.7 erythroleukemia cells; test: Single agent IC50, alamarBlue cell viability (Example 3), HEL92.1.7; assay type: cell-based, human; details: XLFit
Method: as §1

[5] = test system: H1975 cells; test: Single agent IC50 in H1975 cells, alamarBlue viability (Example 2); assay type: cell-based, human; details: XLFit
Method: After 72 h exposure to either drug, viability was determined by alamarBlue, data from which was used to calculate the IC50 values using XLFit software (ID Business Solutions).

[6] = test system: human NSCLC cell line NCI-H1975; assay type: in vivo; details: 3 doses, day 32, SCID mice
Method: FBS was obtained from ATCC and all other reagents were obtained from Invitrogen Corp. (Carlsbad, Calif., USA). Cells that had been cryopreserved in liquid nitrogen were rapidly thawed at 37° C. and transferred to a tissue culture flask containing growth media and then incubated at 37° C. in a 5% CO2 incubator. […] To inactivate the trypsin, 5 mL of growth media was added and then the contents of the flask were centrifuged to pellet the cells. The supernatant was aspirated and the cell pellet was resuspended in 10 mL of growth media and the cell number determined using a hemocytometer. Cells were seeded into 175 cm^2 flasks containing 50 mL of growth media and incubated at 37° C. in a 5% CO2 incubator.
as §2

[7] = 72 hr exposure, read-out: Single agent IC50 values, HEL-92.1.7

Compound	IC50 ([1]; Homo sapiens, HT-29, 72 hr exposure)	IC50 ([2]; Homo sapiens, NCI-H1975, 72 hr exposure)	% T/C value ([3]; Compound 1 75 mg/kg 1×/week)	IC50 ([4]; Homo sapiens, HEL 92.1.7, 72 hr exposure)	IC50 ([5]; Homo sapiens, NCI-H1975, 72 h exposure)	% T/C value ([6]; Compound 1 50 mg/kg i.v. 1 time per week)	IC50 ([1]; 72 hr exposure)	IC50 ([2]; 72 hr exposure)	% T/C value ([3]; docetaxel 4 mg/kg 1×/week)	IC50 [4, 7]	IC50 ([5]; 72 h exposure)	% T/C value ([6]; paclitaxel 7.5 mg/kg i.v. 1 time per week)
CC(C)c1cc(-c2nnc(O)n2-c2ccc3c(ccn3C)c2)c(O)cc1O [Compound 1, 3-(2,4-dihydroxy-5-isopropyl-phenyl)-4-(1-methyl-indol-5-yl)-5-hydroxy-[1,2,4] triazole]	36 nM	13 nM	26%	32 nM	15 nM	55%	–	–	–	–	–	–
CC(=O)O[C@@]12CO[C@@H]1C[C@H](O)[C@@]1(C)C(=O)[C@H](O)C3=C(C)[C@@H](OC(=O)[C@H](O)[C@@H](NC(=O)OC(C)(C)C)c4ccccc4)C[C@@](O)([C@@H](OC(=O)c4ccccc4)[C@H]21)C3(C)C [docetaxel]	–	–	–	–	–	–	0.6 nM	1 nM	46%	14 nM	–	–
CC(=O)O[C@H]1C(=O)[C@@]2(C)[C@H]([C@H](OC(=O)c3ccccc3)[C@]3(O)C[C@H](OC(=O)[C@H](O)[C@@H](NC(=O)c4ccccc4)c4ccccc4)C(C)=C1C3(C)C)[C@]1(OC(C)=O)CO[C@@H]1C[C@@H]2O [paclitaxel]	–	–	–	–	–	–	–	4 nM	–	25 nM	7 nM	38%
